According to patent US20040229848A1, “Glutaminyl based DP IV-inhibitors” (priority 2003, published 2004):

molecular target: glutaminyl cyclase (QC) (Homo sapiens, UniProt Q16769); assay: not given; conditions: not given
Sequence (Q16769 29-361): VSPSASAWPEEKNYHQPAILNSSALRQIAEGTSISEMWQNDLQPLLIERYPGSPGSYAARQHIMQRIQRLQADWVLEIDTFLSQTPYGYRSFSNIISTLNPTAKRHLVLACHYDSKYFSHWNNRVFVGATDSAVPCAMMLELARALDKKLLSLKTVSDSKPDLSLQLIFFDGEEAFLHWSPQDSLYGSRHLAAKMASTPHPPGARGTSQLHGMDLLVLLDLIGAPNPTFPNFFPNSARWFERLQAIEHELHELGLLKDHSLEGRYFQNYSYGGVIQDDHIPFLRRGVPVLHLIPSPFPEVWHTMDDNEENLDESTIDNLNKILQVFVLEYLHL

Compound	degradation by glutaminyl cyclase	half-life in the presence of QC
NC(=O)CC[C@H](N)C(=O)N1CCSC1 [glutaminyl thiazolidine]	degraded to the pyro-glutaminyl-thiazolidine	reduced

same assay, conditions: case (c): 2.6*10^−5 M glutaminyl thiazolidine, 54 mU QC and 0.4 mM inhibitor

Compound	reaction rate of H-Gly-Pro-pNA hydrolysis after addition of the QC inhibitor
c1ccc2[nH]cnc2c1 [benzimidazole]	the reaction rate goes down as low as in case (a)

molecular target: DPIV (Homo sapiens, UniProt P27487); assay: DPIV activity assay, hydrolysis of H-Gly-Pro-pNA; conditions: 0.4 mM H-Gly-Pro-pNA, 0.65 mU DPIV, 0.04 M Hepes pH 7.6, 30° C.; 2.6*10^−5 M glutaminyl thiazolidine
Sequence (P27487 whole entry): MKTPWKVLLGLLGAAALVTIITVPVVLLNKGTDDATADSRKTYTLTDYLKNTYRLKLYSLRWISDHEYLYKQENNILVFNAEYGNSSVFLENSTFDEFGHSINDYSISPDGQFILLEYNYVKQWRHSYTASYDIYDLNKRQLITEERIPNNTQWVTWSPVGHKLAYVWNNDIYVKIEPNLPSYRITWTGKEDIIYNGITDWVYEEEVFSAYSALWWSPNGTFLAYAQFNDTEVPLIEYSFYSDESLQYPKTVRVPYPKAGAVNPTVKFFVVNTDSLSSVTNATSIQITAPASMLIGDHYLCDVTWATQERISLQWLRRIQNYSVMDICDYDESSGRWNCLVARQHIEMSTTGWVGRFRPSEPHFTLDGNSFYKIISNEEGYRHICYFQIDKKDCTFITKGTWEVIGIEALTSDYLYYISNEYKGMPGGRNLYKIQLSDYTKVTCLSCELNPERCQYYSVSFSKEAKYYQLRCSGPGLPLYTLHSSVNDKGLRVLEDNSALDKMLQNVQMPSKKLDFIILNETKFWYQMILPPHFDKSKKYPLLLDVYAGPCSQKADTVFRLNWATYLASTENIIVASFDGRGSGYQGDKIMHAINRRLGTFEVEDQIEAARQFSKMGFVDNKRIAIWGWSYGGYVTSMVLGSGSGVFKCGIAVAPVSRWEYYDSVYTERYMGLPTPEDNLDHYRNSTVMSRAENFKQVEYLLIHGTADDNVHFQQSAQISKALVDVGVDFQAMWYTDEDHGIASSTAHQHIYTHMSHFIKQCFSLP
Method: All assays were performed at 30° C. using the Sunrise reader for microplates (TECAN). […] Additionally, samples contained either
a) 2.6*10^−5 M glutaminyl thiazolidine (open circles), or
Otherways, reactions were started by addition of a mixture of H-Gly-Pro-pNA and glutaminyl thiazolidine. Reactions were followed by monitoring the decrease in absorbance at 400 nm.

Compound	inhibition of DPIV (hydrolysis of H-Gly-Pro-pNA)
NC(=O)CC[C@H](N)C(=O)N1CCSC1 [glutaminyl thiazolidine]	competitive inhibition
O=C1CCC(C(=O)N2CCSC2)N1 (centres unmarked) [pyro-glutaminyl-thiazolidine]	not active

molecular target: human QC (Homo sapiens, UniProt Q16769); assay: Inhibition of the human QC (glutaminyl cyclase) catalyzed reaction, Ki determination; conditions: not given
Sequence (Q16769 29-361): as the sequence (Q16769 29-361) above

Ki	Compound
30 ± 1 µM	Cn1ccnc1 [1-methylimidazole]
32.2 ± 0.7 µM	COC(=O)[C@H](C)NC(=O)C1CCC(Cn2ccnc2)N1 (some centres unmarked) [2-[(5-imidazol-1-ylmethyl-pyrrolidine-2-carbonyl)-amino]-propionic acid methyl ester]
2.5 ± 0.1 µM	Cc1c(C(=O)CCn2ccnc2)sc2ccccc12 [3-(1H-imidazol-1-yl)-1-(3-methylbenzo[b]thiophene-2-yl)propan-1-one]
0.41 ± 0.01 µM	O=C1CNC(=S)N1CCCn1ccnc1 [3-[3-(1H-imidazol-1-yl)propyl]-2-thioxoimidazolidin-4-one]
3.4 ± 0.1 µM	O=C(O)c1ccc(OCCn2ccnc2)cc1 [4-[2-(1H-imidazol-1-yl)-ethoxy]benzoic acid]
6.7 ± 0.3 µM	CCCC1C(=O)OCC1Cc1cncn1C (centres unmarked) [4-[(1-methyl-1H-imidazol-5-yl)methyl]-3-propyldihydrofuran-2-(3H)-one]
6.6 ± 0.4 µM	O=C(Nc1ccccc1C(=O)NCCCn1ccnc1)c1ccc([N+](=O)[O-])o1 [5-nitro-2-[2-([{3-(1H-imidazol-1-yl-)propyl}amino]carbonyl)phenyl]furamide]
35.6 ± 0.5 µM	c1ccn2cncc2c1 [Imidazo[1.5a]pyridine]
78 ± 2 µM	O=C(C(=O)n1ccnc1)n1ccnc1 [oxalic acid dilmidazolidide]

Second part, the molecule before the results:

Compound	Ki
COC(=O)[C@@H](NC(=O)[C@@H](N)CCC(=O)Nn1ccnc1)C(C)C [Methyl (2S)-2-{[(28)-2-amino-5-(1H-imidazol-1-ylamino)-5-oxopentanoyl]amino}-3-methylbutanoate]	164 ± 4 µM
S=C(NCCn1ccnc1)Nc1ccc(Cl)cc1 [N-(4-chlorophenyl)-N′-[2-(1H-imidazol-1-yl)ethyl]thiourea]	1.65 ± 0.07 µM

same assay, conditions: QC inhibition by L-histamine and its two biological metabolites (Table 4)

Ki value (mM)	Compound
n.i	Cn1cnc(CCN)c1 [1-methyl-4-(β-aminoethyl)-imidazole]

same assay, conditions: human QC catalyzed reaction; 30° C. in 0.05 M Tris-HCl pH 8.0, containing 5 mM EDTA

Ki-value (mM)	Compound
no inhibition	N#Cc1nc[nH]c1C#N [4,5-dicyanoimidazole]
no inhibition	c1ccc(-c2nc[nH]c2-c2ccccc2)cc1 [4,5-diphenyl-imidazole]

Second part, the molecule before the results:

Compound	Ki-value (mM)
O=S(=O)(n1ccnc1)n1ccnc1 [1,1′-sulfonyldiimidazole]	no inhibition
c1ccc(-n2ccnc2)cc1 [1-phenylimidazole]	no inhibition
Clc1nc2ccccc2[nH]1 [2-chioro-1H-benzimidazole]	no inhibition

same assay, conditions: read-out: Ki value; QC inhibition by L-histamine and its two biological metabolites (Table 4)

Compound	Ki
Cn1cncc1CCN [3-methyl-4-(β-aminoethyl)-imidazole]	120 ± 4 µM
NCCc1c[nH]cn1 [L-histamine]	850 ± 40 µM

same assay, conditions: read-out: Ki-value; human QC catalyzed reaction; 30° C. in 0.05 M Tris-HCl pH 8.0, containing 5 mM EDTA

Ki	Compound
49 ± 2 µM	C=Cn1ccnc1 [1-vinylimidazole]
1800 ± 100 µM	Nc1nc2ccccc2[nH]1 [2-aminobenzimidazole]
580 ± 40 µM	CCc1nc(C)c[nH]1 [2-ethyl-4-methyl-imidazole]
15500 ± 500 µM	NC(=O)c1[nH]cnc1N [4-amino-imidazole-5-carbonic acid amide]
7600 ± 700 µM	O=Cc1c[nH]cn1 [4-imidazole-carboxaldehyde]
129 ± 5 µM	Cc1nc[nH]c1CO [5-hydroxymethyl-4-methyl-imidazole]
560 ± 40 µM	NC(=O)[C@@H](N)Cc1c[nH]cn1 [L-histidinamide]
1530 ± 120 µM	N[C@H](CO)Cc1c[nH]cn1 [L-histidinol]
174 ± 7 µM	O=C(c1ccccc1)n1ccnc1 [N-benzoylimidazole]

Further lines, the molecule ahead of its results:

Compound	Ki
O=C(Cn1ccnc1)c1ccccc1 [1-(2-oxo-2-phenyl-ethyl)-imidazole]	184 ± 5 µM
NCCCn1ccnc1 [1-(3-aminopropyl)-imidazole]	410 ± 10 µM
Cc1nc2ccccc2[nH]1 [2-methyl-benzylimidazole]	165 ± 4 µM
NCCc1c[nH]cn1 [L-histamine]	850 ± 40 µM
N[C@@H](Cc1c[nH]cn1)C(=O)O [L-histidine]	4400 ± 200 µM
C[Si](C)(C)n1ccnc1 [N-(trimethylsilyl)-imidazole]	167 ± 7 µM
CC(=O)n1ccnc1 [N-acetylimidazole]	107 ± 3 µM
COC(=O)c1c[nH]cn1 [imidazole-4-carbonic acid methylester]	14500 ± 600 µM
